Literature values as cited in patent US9895453B1, “Shiny ultrasound gel” (priority 2016, dated 2018).

What was measured:
[1] = tested on: Ps. aeruginosa
[2] = tested on: Staph aureus
[3] = tested on: A. niger
[4] = tested on: C. ablicans
[5] = tested on: E. Coli
[6] = tested on: Ps. cepacia; conditions: initial inoculum 2.7 × 10^6 per gram product, 0.7% Suttocide A

O=C([O-])CNCO.[Na+] [Suttocide® A, Sodium Hydroxymethylglycinate]
organism growth (count) at 48 hours ([1]; Ps. aeruginosa, 48 hours, initial inoculum 9.5 × 10^6 per gram product, 0.7% Suttocide A): <10
organism growth (count) at 7 days ([1]; Ps. aeruginosa, 7 days, initial inoculum 9.5 × 10^6 per gram product, 0.7% Suttocide A): <10
organism growth (count) at 28 days ([1]; Ps. aeruginosa, 28 days, initial inoculum 9.5 × 10^6 per gram product, 0.7% Suttocide A): <10
kills at a concentration of ([1]; Pseudomonas aeruginosa, TABLE 1): 0.7%
organism growth (count) at 48 hours ([2]; Staph aureus, 48 hours, initial inoculum 7.3 × 10^6 per gram product, 0.7% Suttocide A): <10
organism growth (count) at 7 days ([2]; Staph aureus, 7 days, initial inoculum 7.3 × 10^6 per gram product, 0.7% Suttocide A): <10
organism growth (count) at 28 days ([2]; Staph aureus, 28 days, initial inoculum 7.3 × 10^6 per gram product, 0.7% Suttocide A): <10
kills at a concentration of ([2]; Staphylococcus aureus, TABLE 1): 0.7%
organism growth (count) at 48 hours ([3]; A. niger, 48 hours, initial inoculum 8.0 × 10^6 per gram product, 0.7% Suttocide A): <10
organism growth (count) at 7 days ([3]; A. niger, 7 days, initial inoculum 8.0 × 10^6 per gram product, 0.7% Suttocide A): <10
organism growth (count) at 28 days ([3]; A. niger, 28 days, initial inoculum 8.0 × 10^6 per gram product, 0.7% Suttocide A): <10
kills at a concentration of ([3]; Aspergillus niger (Aspergillus brasiliensis), TABLE 1): 0.7%
organism growth (count) at 48 hours ([4]; C. ablicans, 48 hours, initial inoculum 4.3 × 10^6 per gram product, 0.7% Suttocide A): <10
organism growth (count) at 7 days ([4]; C. ablicans, 7 days, initial inoculum 4.3 × 10^6 per gram product, 0.7% Suttocide A): <10
organism growth (count) at 28 days ([4]; C. ablicans, 28 days, initial inoculum 4.3 × 10^6 per gram product, 0.7% Suttocide A): <10
kills at a concentration of ([4]; candida albicans, TABLE 1): 0.7%
organism growth (count) at 48 hours ([5]; E. Coli, 48 hours, initial inoculum 6.0 × 10^6 per gram product, 0.7% Suttocide A): <10
organism growth (count) at 7 days ([5]; E. Coli, 7 days, initial inoculum 6.0 × 10^6 per gram product, 0.7% Suttocide A): <10
organism growth (count) at 28 days ([5]; E. Coli, 28 days, initial inoculum 6.0 × 10^6 per gram product, 0.7% Suttocide A): <10
kills at a concentration of ([5]; Escheria coli, TABLE 1): 0.7%
organism growth (count) at 48 hours ([6]; 48 hours): <10
organism growth (count) at 7 days ([6]; 7 days): <10
organism growth (count) at 28 days ([6]; 28 days): <10
